Laboratory results taken from patent publication US20100330604A1, “QUANTIFICATION OF CHANGES IN THE DEGREES OF ORDER OF CELLULAR AND VIRAL MEMBRANES AND APPLICATIONS TO DIAGNOSIS, TREATMENT AND DRUG SCREENING” (priority 2007, published 2010).
Read-outs that look alike come from different tables or passages of the source.

What was measured:
platelets [1] = assay: Di-4-[…] Rf by confocal fluorescent microscopy on platelets; format: cell-based; settings: 10 mM, 37° C., 30 min; four donors; p=0.045
Experimental: Referring to FIG. 3, fluorescence intensities were measured by confocal fluorescent microscopy and flow cytometry on control platelets, cholesterol depleted platelets (10 mM Methyl-β-cyclodextrin, 37° C., 30 min) and cholesterol enriched platelets (2 mM Cholesterol-MCD complex, 37° C., 30 min).
A META confocal fluorescence microscope system (Zeiss, Toronto) was used to measure the intensities of fluorescence between 534 to 599 nm and between 650 to 684 nm allowing calculating the fluorescence ratio (Rf) prepared according as described hereinabove. Consistently with previous published data on neutrophils (Jin L et al. Biophys J; 2006), the Rf was higher after depletion compared to control platelets (measures on at least 5 platelets of four different donors; p=0.045) (Panel A).

P-selectin = assay: Expression of platelet activation marker P-selectin on washed platelets; format: cell-based; settings: 10 mM, 30 minutes, room temperature; after 10 μM TRAP or 50 μM A23187
platelets [2] = assay: Di-4-[…] fluorescence and Rf (675/575 nm) by flow cytometry on isolated platelets treated in vitro; format: cell-based
[3] = system: activated GpIIbIIIa receptors; assay: Activation of the activated GpIIbIIIa receptors on washed platelets; format: cell-based; settings: 10 mM, 30 minutes, room temperature; after 10 μM TRAP or 50 μM A23187
platelets [4] = assay: Di-4-ANEPPDHQ Rf by flow cytometry on platelets of hyperlipidemic patients before and after atorvastatin; format: in vivo, human; settings: after 6-week atorvastatin 40 mg
platelets [5] = assay: Shear Induced Platelet activation (SIPA): high Rf platelet subpopulation; format: cell-based
platelets [6] = assay: Spectral flow cytometry of di-4-[…] stained platelets stimulated by soluble agonists; format: cell-based
platelets [7] = settings: mean+/-SD
platelets [8] = settings: all three patient groups; FIG. 19 panel B
cells = assay: Kinetics of apoptosis after addition of staurosoprine (di-4-[…] staining, flow cytometry); format: cell-based
Text: Cells are detected, identified and segregated according to their size using forward scatter (FSC) and granularity (SSC). A total of 5000-10000 particles are typically analyzed. The excitation light is provided by a 488 nm laser, but could be achieved with lasers having wavelengths between 400 and 500 nm, among other possibilities. The emission fluorescence associated with liquid ordered domains is acquired between 575+/−25 nm, but the bandwidth could be narrower or wider, for example contained between 500 and 600 nm. The emission fluorescence associated with liquid disordered domains is acquired between 675+/−25 nm, but the bandwidth could be narrower or wider, contained for example between 650 and 750 nm.
Amplifications and gains associated with both fluorescences are adjusted on calibrated fluorescent beads or on a control cell population to obtain a ratio of fluorescence and to allow increases or decreases of the fluorescences and of the ratio. The ratio of fluorescence (Rf) is determined for each particle analysed by computing the ratio between the fluorescence intensity at 675 nm and the fluorescence intensity at 575 nm. By plotting FSC or SSC as a function of Rf for all particles on a logarithmic scale graph, the percentage of apoptotic cells can be determined as being the percentage of cells in the studied population having a Rf higher than a control population.

[9] = 10 mM, room temperature, during incubation, N=3

## Methyl-β-cyclodextrin
Platelets [1]
  Rf by confocal microscopy compared to control platelets: higher
P-selectin
  expression of platelet activation marker P-selectin: decreased
Platelets [2]; 10 mM, 37° C., 30 min, 10 μM di-4-ANEPPDHQ
  fluorescence intensity (575 and 675 nm) versus control undepleted platelets: shifted to lower values
Platelets [2]; 10 mM, 30 minutes, room temperature, p<0.05 to p<0.001
  Rf vs. control platelets: increased
Platelets [2]; 10 mM, room temperature
  time of cholesterol depletion after which the fluorescence ratio measurement is substantially stable: 30 min
Platelets [2]; [9]
  fluorescence associated to the more ordered membrane (575 nm): decreased
  fluorescence emitted at 675 nm: remained stable
Platelets [2]; 10 mM, room temperature, N=3
  ratio of fluorescence (Rf) during the incubation: increased
Platelets [2]; cholesterol depletion 10 mM, 37° C., 30 min, N=5
  fluorescence ratio (Rf) calculated from flow cytometry data: increased
[3]
  activation of the activated GpIIbIIIa receptors: decreased

## CC(C)c1c(C(=O)Nc2ccccc2)c(-c2ccccc2)c(-c2ccc(F)cc2)n1CC[C@@H](O)C[C@@H](O)CC(=O)O [atorvastatin]
Platelets [4]; 20 hyperlipidemic patients, compared value 9.2+/-0.1, p=0.01
  Rf (MLO in platelets): 8.8+/−0.1
Platelets [4]; compared value 12.8+/-0.5, p=0.09
  effects of the cholesterol depletion on the MLO (Rf): 11.7+/−0.2

## C=C1[C@@H](C)[C@H]2[C@H](Cc3ccccc3)NC(=O)[C@]23[C@H](OC(C)=O)/C=C/[C@@](C)(O)C(=O)[C@@H](C)C/C=C/[C@H]3[C@@H]1O [cytochalasin D]
Platelets [5]
  generation of the high Rf platelet population during the shear treatment: abrogated

## CNc1ccc2oc(C[C@H]3O[C@@]4(CC[C@H]3C)O[C@H]([C@H](C)C(=O)c3ccc[nH]3)[C@H](C)C[C@H]4C)nc2c1C(=O)O [A23187]
Platelets [6]
  fluorescence intensities between 515 and 600 nm (more ordered phases) upon activation: decrease
Platelets [2]; agonist: 10 μM TRAP or 50 μM A23187, p<0.05
  Rf vs. non activated platelets incubated with TBS: significantly increased

## thrombin
Platelets [6]; 0.5 U/mL, 30 minutes at 37 C
  fluorescence at wavelengths larger than 660 nm compared to controls: increased significantly
  fluorescence between 530 and 585 nm compared to controls: decreased significantly
Platelets [6]; Thrombin 0.5 U/ml, A23187 10 μM, Thrombin 0.5 U/ml/Convulxin 500 ng/ml, FIG. 15
  fluorescence intensities between 515 and 600 nm (more ordered phases) upon activation: decrease

## COC(=O)[C@H](c1ccccc1Cl)N1CCc2sccc2C1 [clopidogrel]
Platelets [7]; Group A: clopidogrel 300 mg the day before + 75 mg the morning of the procedure, before 8.80+/-0.2, p<0.001
  ratio of fluorescence (Rf) after administration of clopidogrel: 8.68+/−0.22
Platelets [7]; Group B: clopidogrel 600 mg the morning of (2 hours before) the procedure, before 8.90+/-0.24, p=0.006
  ratio of fluorescence (Rf) after administration of clopidogrel: 8.77+/−0.27
Platelets [7]; Group C: clopidogrel 600 mg the day before and 600 mg the morning of the procedure, before 8.69+/-0.29, p=0.88
  ratio of fluorescence (Rf) after administration of clopidogrel: 8.69+/−0.21
Platelets [8]
  platelet sub-population (Population 2), about 0.46% of platelets before treatment: inhibited

## CCCCC[C@@H](O)[C@H]1C(=O)O[C@H](C)[C@@H](O)/C=C/C=C/C=C/C=C/C=C(\C)[C@@H](O)C[C@H](O)C[C@H](O)C[C@H](O)C[C@H](O)C[C@H](O)C[C@@H]1O [filipin]
Platelets [2]; platelets, 30 minutes at 37° C., different concentrations, N=5
  Rf measured by flow cytometry: dose-dependency

## CN[C@@H]1C[C@H]2O[C@@](C)([C@@H]1OC)n1c3ccccc3c3c4c(c5c6ccccc6n2c5c31)C(=O)NC4 [staurosoprine]
cells; FIG. 17 panel G
  total proportion of intact cells after induction of apoptosis: decreases regularly
cells; FIG. 17 panel H
  time at which the concentration in microparticles is maximal: 24 h
